Assay results as given in patent US11731946B2, “Broad spectrum antivirulence, anti-persistence compounds” (priority 2017, dated 2023).

How the values were obtained:
[1] = test system: MvfR regulon; assay: Quantification of pyocyanin (OD520nm of chloroform-extracted cultures); type: cell-based, P. aeruginosa; settings: for activity at 1 µM / activity at 10 µM / activity at 50 µM / IC50: Pseudomonas aeruginosa; for activity at 1 µM: read-out: pyocyanin @1 uM (%), compound at 1 uM; for activity at 10 µM: read-out: pyocyanin @10 uM (%), compound at 10 uM; for activity at 50 µM: read-out: pyocyanin @50 uM (%), compound at 50 uM; for IC50: read-out: IC50 pyocyanin (μM)
[2] = test system: MvfR regulon; assay: pqsA gene expression (pqsA-GFP reporter); type: cell-based, P. aeruginosa; settings: for activity at 10 µM / activity at 50 µM / IC50: Pseudomonas aeruginosa; for activity at 10 µM: read-out: pqsA @10 uM (%), compound at 10 uM; for activity at 50 µM: read-out: pqsA @50 uM (%), compound at 50 uM; for IC50: read-out: IC50 pqsA (μM)
Experimental: Experiments were performed to identify compounds that inhibit the MvfR regulon without altering growth, ultimately attenuating P. aeruginosa infection. MvfR is a LysR-type transcriptional regulator that directs HAQs synthesis, including that of its ligands, 4-hydroxy-2-heptylquinoline (HHQ) and 3,4-dihydroxy-2-heptylquinoline (PQS).
MvfR promotes the production of HAQs by binding to and activating the pqs operon, which encodes enzymes for HAQ synthesis. Anthranilic acid (AA), derived from the phnAB, kynABU, and trpEG pathways, is the precursor for HAQs. pqsA encodes an anthranilate-coenzyme A ligase, which activates anthranilic acid and catalyzes the first committed step to HAQ production. The exact roles of PqsB and PqsC are unknown, though both show homology to acyl-carrier-proteins and both are required for HHQ and PQS production. […] The final gene of the operon, pqsE encodes for a putative hydrolase, and while the protein is not required for the synthesis of HAQs, it is necessary for pyocyanin production.
Nanomolar levels of most of these MvfR antagonists impeded the activity of MvfR and in consequence the MvfR virulence regulated ACRP functions, including: (1) the production of the important pro-acute P. aeruginosa virulence factor pyocyanin (see e.g., FIG. 9A) the efficacy of two of these potent inhibitors, D57 and D88, was also confirmed by testing many different MDR P. aeruginosa clinical isolates (see e.g., FIG. 11A-11B), providing further confidence of their inhibitory potency; (2) the expression of the genes that encode the enzymes catalyzing the synthesis of both pro-acute and pro-persistence MvfR-regulated virulence molecules, 4-hydroxyl-2-alkyl-quinolines (HAQs) and 2-aminoacetophenon (2-AA), as assessed by pqsAGFP reporter gene expression (see e.g., FIG. 9B) and HAQ production showing the levels of MvfR inducers/ligands HHQ and PQS as well as of the molecules critical for biofilm and Antibiotic tolerant/persiters cells formation HQNO and 2-AA (see e.g., FIG. 9C); (3) AT/P cell formation (see e.g., FIGS. 11A, 12A); (4) biofilm formation (see e.g., FIG. 12B); and (5) biofilm dispersal of preformed biofilm by potentiating antibiotic action (see e.g., FIG. 11B).

[3] = molecular target: T1, MvfR (Pseudomonas aeruginosa, UniProt Q9I4X0); assay: Surface plasmon resonance (SPR) binding to purified MvfR co-inducer binding domain; set-up: species or system P. aeruginosa; settings: SPR
T1 construct: made in house
T1 sequence (Q9I4X0 91-332): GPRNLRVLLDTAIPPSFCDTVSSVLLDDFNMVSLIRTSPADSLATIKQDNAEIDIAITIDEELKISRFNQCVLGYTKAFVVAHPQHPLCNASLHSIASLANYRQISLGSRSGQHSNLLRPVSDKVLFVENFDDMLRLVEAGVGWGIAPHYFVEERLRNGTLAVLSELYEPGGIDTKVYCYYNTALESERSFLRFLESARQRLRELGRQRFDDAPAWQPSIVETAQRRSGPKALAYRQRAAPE
Experimental: Compounds identified to interfere with MvfR were confirmed for the direct physical interaction with this protein. Using SPR, the percentage of compound's binding to the purified MvfR protein was analyzed and used to determine the binding parameters (KD, kon and koff)—thus determining the kinetic of interaction with MvfR.
The recombinant MvfR co-inducer binding domain was purified using Ni-NTA chromatography, as previously reported (see e.g., Xiao et al, Microbiology, 2006, 152:1679-1686; Starkey et al, PLoS Pathog. 2014, 10:e1004321; and Kefala et al, Acta. Crystallogr. Sect. F. Struct. Biol. Cryst. Commun. 2012, 68:695-697). The purified protein was immobilized with the amine coupling method at a target level of 5000 RU on Chip. SPR was performed according to previously reported procedures (see e.g., Starkey et al, PLoS Pathog. 2014, 10:e1004321; Maura et al, ACS Chemical Biology, 2017, 12:1435-1443; and Kitao et al, MBIO, in press). […] Table 3 lists the steady-state KD data measured by SPR.

[4] = test system: MvfR regulon; assay: LC/MS quantification of HAQs and related molecules in bacterial culture supernatants; type: cell-based, P. aeruginosa; settings: Pseudomonas aeruginosa
[5] = Steady State Binding Affinity KD (μM), steady state
[6] = Steady State Binding Affinity KD [M], steady state
[7] = compound at 50 uM, listed as G1

SMILES	activity at 50 µM [1]	activity at 10 µM [2]	activity at 50 µM [2]	activity at 50 µM ([4]; read-out: 2-AA @50 uM)	activity at 50 µM ([4]; read-out: AA @50 uM)	activity at 50 µM ([4]; read-out: DHQ @50 uM)	activity at 50 µM ([4]; read-out: HHQ @50 uM (%))	activity at 50 µM ([4]; read-out: HQNO @50 uM (%))	activity at 50 µM ([4]; read-out: PQS @50 uM (%))	other results
N#Cc1ccc(NC(=O)CC(=O)Nc2ccc(C#N)c(Cl)c2)cc1 [Compound 110]	4.12%	1.75%	5.61%	–	–	–	–	–	–	activity at 1 µM [1]: 64.7%; activity at 10 µM [1]: 6.8%; Kd ([3]; mean KD value, mean over the compounds named): 0.25 µM
Cc1cc(F)ccc1NCC(=O)Nc1ccc(C#N)cc1 [Compound 1]	66.8%	–	32.4%	101%	100%	135%	2.67%	17%	10.5%	IC50 [1]: 70.6 µM; IC50 [2]: 20.2 µM; IC50 ([4]; PA14, read-out: IC50 HHQ (μM)): 10.4 µM; IC50 ([4]; PA14, read-out: IC50 PQS (μM)): 15.1 µM; IC50 ([4]; read-out: IC50 HQNO (μM)): 20.3 µM; Signal Intensity Rmax [3]: 23.41; Kd [3, 5]: 9.18 µM; Kd [3, 6]: 9.19 µM
O=C(CC(=O)Nc1ccc([N+](=O)[O-])cc1)Nc1ccc(Oc2ccccc2)cc1 [Compound 73]	5.9%	1.95%	8.9%	–	–	–	–	–	–	IC50 [1]: 0.398 µM; activity at 1 µM [1]: 9.2%; activity at 10 µM [1]: 5.2%; IC50 [2]: 0.21 µM; Signal Intensity Rmax [3]: 33.31; Kd [3, 5]: 0.755 µM; Kd [3, 6]: 0.755 µM
Cc1cc(F)ccc1N1CCCC(NC(=O)c2ccc(C#N)cc2)C1 (stereo not drawn) [Compound 50]	108%	–	89.9%	101%	54.5%	84.2%	98.5%	100%	96.1%	–
CS(=O)(=O)CNc1ccc(NC(=O)CC(=O)Nc2ccc(C#N)cc2)cc1 [Compound 70]	99.7%	94.7%	131%	94.8%	117%	80%	130%	98.3%	115%	–
N#Cc1ccc(NC(=O)CCNc2ccc(F)cc2)cc1 [Compound 46]	90.8%	–	79.6%	113%	101%	99.5%	97%	95.8%	97.2%	–
Cc1cc(F)ccc1NC(=O)Cc1ccc(C#N)cc1 [Compound 52]	115%	–	95.7%	113%	80.7%	84.9%	102%	109%	99.8%	–
Cc1cc(F)ccc1NCC(=O)Nc1ccccc1C#N [Compound 4]	113%	–	95.9%	123%	–	–	99.2%	111%	122%	–
Cc1cc(F)ccc1OCC(=O)Nc1ccc(F)cc1 [Compound 8]	91.1%	–	78%	71.7%	–	67.8%	83.5%	94%	94.7%	–
N#Cc1ccc(NC(=O)CC(=O)Nc2ccc(NC(=O)C(F)(F)F)cc2)cc1 [Compound 69]	93.8%	94.2%	84.9%	117%	82.4%	108%	103%	101%	101%	–
N#Cc1ccc(NC(=O)CC(=O)Nc2ccc(F)cc2)cc1 [Compound 48]	15.7%	–	9.7%	37.3%	187%	68.3%	56.8%	58.5%	46.7%	IC50 [1]: 7.1 µM; IC50 [2]: 5.5 µM; IC50 ([4]; PA14, read-out: IC50 2-AA (μM)): 20.9 µM; IC50 ([4]; PA14, read-out: IC50 DHQ (μM)): 33 µM; IC50 ([4]; PA14, read-out: IC50 HHQ (μM)): 47.5 µM; IC50 ([4]; PA14, read-out: IC50 PQS (μM)): 36.5 µM; IC50 ([4]; read-out: IC50 AA (increase; μM)): 42.5 µM; IC50 ([4]; read-out: IC50 HQNO (μM)): 33.7 µM
Cc1cc(F)ccc1NC(=O)CC(=O)Nc1ccc(C#N)cc1 [Compound 62]	59.5%	110%	43.6%	72.7%	58.7%	84.7%	79.6%	86.5%	83.5%	–
Cc1cc(F)ccc1NCC(=O)Nc1ccc(F)cc1 [Compound 5]	83.6%	–	92%	80.4%	–	84.7%	94.6%	92.3%	88.5%	–
CC(=O)c1ccc(NC(=O)CC(=O)Nc2ccc(C#N)cc2)cc1 [Compound 63]	65.6%	86.5%	28%	89.9%	131%	106%	120%	101%	119%	IC50 [2]: 57.1 µM
Cc1cc(F)ccc1NCC(=O)Nc1cccc(C#N)c1 [Compound 2]	–	–	–	122%	–	–	100%	101%	109%	pyocyanin @50 uM (%) [1, 7]: 102.49%; pqsA @50 uM (%) [2, 7]: 84.13%
CC(=O)Nc1ccc(NC(=O)CC(=O)Nc2ccc(C#N)cc2)cc1 [Compound 68]	103%	94.2%	84.8%	92.8%	56%	98.2%	74.7%	84.6%	87.6%	–
Cc1cc(F)ccc1NC(C)C(=O)Nc1ccc(C#N)cc1 (stereo not drawn) [Compound 7]	110%	–	86.8%	152%	–	–	106%	131%	115%	–
CN(C(=O)CC(=O)Nc1ccc(C#N)cc1)c1ccc(F)cc1 [Compound 59]	110%	110%	105%	97.3%	35.5%	91%	75.9%	85.3%	86.6%	–
N#Cc1ccc(NC(=O)CNC(=O)c2ccc(F)cc2)cc1 [Compound 58]	94%	11%	70.7%	86.6%	32.3%	89.8%	77.8%	85.9%	85.1%	–
